The source of these data is ChEMBL document CHEMBL1201862, “PubChem BioAssay data set” (2004).

Common to all, as to experiment: NCI anticancer screen, dose series, 48 h
Experiment [1] deals with HCT-15.
Experiment [2] concerns EKVX.
In experiment [3] the test system is SF-268.
Experiment [4] concerns MCF7.
In experiment [5] the test system is SNB-19.
Experiment [6] concerns NCI-H226.
The test system of experiment [7] is OVCAR-5.
Experiment [8] deals with CCRF-CEM.
Experiment [9] concerns NCI-H460.
Experiment [10] has as its system PC-3.
The subject of experiment [11] is M14.
The test system of experiment [12] is HOP-62.
Experiment [13] concerns IGROV-1.
Experiment [14] has as its system MOLT-4.
The subject of experiment [15] is TK-10.
In experiment [16] the test system is ACHN.
Experiment [17] has as its system HCT-116.
The subject of experiment [18] is SF-539.
Experiment [19] deals with HOP-92.
For experiment [20], the system named is SR.

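Following 48 hours of exposure in 96-well plates, responses at five concentrations were used to interpolate endpoints linearly. GI50 marks 50% less growth.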 Calls of active or inactive are those of the source. No stated cut-off is given here; in the data, active = GI50 up to about 1.1 µM and inactive = higher.

Regarding `Cc1cc2c(cc1Cl)SC(NNc1ccc([N+](=O)[O-])cc1)=NS2(=O)=O`, the GI50 in experiment [1] is greater than 10 µM; in experiment [2], > 10 µM (inactive); in experiment [3], > 10 µM (inactive); in experiment [4] it was > 10 µM (inactive); in [5], > 10 µM (inactive); in experiment [6], > 10 µM (inactive). Further, the GI50 in experiment [7], in [8], in [9], in experiment [10], in experiment [11] and in [12] was > 10 µM (inactive) throughout. Also, the GI50 in experiment [13], in experiment [14], in experiment [15], in experiment [16], in experiment [17] and in experiment [18] was > 10 µM (inactive) each time.

Take `CCN1CCC(O)(c2ccccc2)C(C(=O)c2ccccc2)C1` (stereo unspecified): the GI50 in [1] is 26.9 µM; in experiment [2], > 49.2 µM (inactive); in [3], > 31.6 µM (inactive); in experiment [19], 17.7 µM (inactive); in experiment [5], > 100 µM (inactive); in [6], > 54.1 µM (inactive). The GI50 in experiment [7] was 18.2 µM (inactive); in experiment [8] it was 15.7 µM (inactive); in experiment [9], > 100 µM (inactive); in [11] it was 17.3 µM (inactive); in experiment [20], 20.8 µM (inactive); in experiment [12], > 100 µM (inactive). The GI50 was > 100 µM (inactive) in experiment [13]; 21.7 µM (inactive) in [14]; 23.2 µM (inactive) in experiment [15]; 16.7 µM (inactive) in [16]; 17.1 µM (inactive) in experiment [17]; 62.5 µM (inactive) in [18].

On to `Nc1ncnc2c1ccn2CC#CCO`, for which the GI50 in experiment [1] was greater than 100 µM; in [2], > 100 µM (inactive); in experiment [3], > 100 µM (inactive); in experiment [4] it was > 100 µM (inactive); in experiment [19] it was > 100 µM (inactive); in experiment [5], > 100 µM (inactive). In addition, the GI50 in [7], in experiment [8], in [9], in [10], in experiment [11] and in experiment [12] was > 100 µM (inactive) throughout. Moreover, the GI50 in experiment [13], in experiment [14], in experiment [15], in [16], in experiment [17] and in [18] was > 100 µM (inactive) each time.

On to `COC(=O)CC(NC(=O)OCc1ccccc1)C(C(C)=O)C(=O)OCc1ccccc1` (stereo unspecified), for which the GI50 was greater than 31.6 µM in experiment [1]; > 31.6 µM (inactive) in experiment [2]; > 31.6 µM (inactive) in experiment [3]; > 31.6 µM (inactive) in [19]; > 10 µM (inactive) in experiment [5]; > 10 µM (inactive) in [6]. Further, the GI50 was > 100 µM (inactive) in [7]; > 31.6 µM (inactive) in [8]; > 31.6 µM (inactive) in experiment [9]; > 31.6 µM (inactive) in experiment [11]; > 100 µM (inactive) in experiment [20]; > 10 µM (inactive) in experiment [12]. The GI50 in [13], in [14], in experiment [15], in [16], in experiment [17] and in experiment [18] was > 31.6 µM (inactive) in each case.

Take `CN(C(=S)Cc1ccc(Cl)c(Cl)c1)C1CCCC[C@@H]1N1CCCC1` (stereo partly specified): the GI50 in experiment [1] was 58.1 µM; in experiment [2] it was > 100 µM (inactive); in experiment [5], > 100 µM (inactive); in [6] it was 46.6 µM (inactive); in experiment [7], 59.8 µM (inactive); in [10], 31.4 µM (inactive). For the same molecule, the GI50 in experiment [11] was 18.2 µM (inactive); in experiment [12], 54.2 µM (inactive); in experiment [13], < 0.01 µM (active); in [14] it was 51.8 µM (inactive); in experiment [15] it was 27.9 µM (inactive); in experiment [16], 62.1 µM (inactive). Moreover, the GI50 was 48.1 µM (inactive) in [17] and 55.7 µM (inactive) in [18].

On to `CCCCCCCCCCCCCC1CCC(CC)N1` (stereo unspecified), for which the GI50 is 6.52 µM in experiment [1]; 16.9 µM (inactive) in experiment [2]; 8.81 µM (inactive) in experiment [3]; 16.2 µM (inactive) in [19]; 16.9 µM (inactive) in experiment [5]; 15.3 µM (inactive) in experiment [6]. Moreover, the GI50 in experiment [7] is 16.6 µM (inactive); in [8], 5.2 µM (inactive); in [9] it was 2.12 µM (inactive); in experiment [11], 17.9 µM (inactive); in experiment [20], 18.9 µM (inactive); in experiment [12], 7.1 µM (inactive). In addition, the GI50 in [13] is 20.9 µM (inactive); in experiment [14], 11.9 µM (inactive); in experiment [15], 17.7 µM (inactive); in [16], 7.23 µM (inactive); in experiment [17] it was 15.6 µM (inactive); in experiment [18] it was 17.6 µM (inactive).

`Cc1ccc(/N=c2/oc3c(ccc4ccccc43)nc2Nc2ccc(C)cc2)cc1`: the GI50 in [1] was greater than 100 µM; in experiment [2] it was > 100 µM (inactive); in experiment [3] it was > 100 µM (inactive); in experiment [19] it was > 100 µM (inactive); in experiment [5] it was > 100 µM (inactive); in experiment [6] it was > 100 µM (inactive). Besides, the GI50 was > 100 µM (inactive) in [7]; > 100 µM (inactive) in experiment [8]; > 100 µM (inactive) in experiment [9]; > 100 µM (inactive) in experiment [10]; 69.8 µM (inactive) in [20]; > 100 µM (inactive) in [12]. Further, the GI50 in [13] is > 100 µM (inactive); in [14] it was > 100 µM (inactive); in experiment [15] it was > 100 µM (inactive); in experiment [16], 80.4 µM (inactive); in [17] it was > 100 µM (inactive); in experiment [18], > 100 µM (inactive).

As to `CC(=O)OC1COC(n2ccc3cc(Br)c([N+](=O)[O-])cc32)C(OC(C)=O)C1OC(C)=O` (stereo unspecified), the GI50 is 30.9 µM in [1]; 39.4 µM (inactive) in experiment [2]; 33.4 µM (inactive) in experiment [3]; 9.44 µM (inactive) in experiment [19]; 30 µM (inactive) in experiment [5]; 14.5 µM (inactive) in experiment [6]. The GI50 is 21.1 µM (inactive) in [8]; 22 µM (inactive) in experiment [9]; 35.8 µM (inactive) in [11]; 30.4 µM (inactive) in experiment [20]; 30.5 µM (inactive) in experiment [12]; 30.3 µM (inactive) in experiment [13]. Besides, the GI50 in experiment [14] was > 10 µM (inactive); in experiment [15], 27 µM (inactive); in experiment [16], 27.6 µM (inactive); in experiment [18] it was 22.2 µM (inactive).

As for `CCOC(=O)C(CNc1ccc(O)cc1)NC(=O)c1ccccc1` (stereo unspecified), the GI50 in experiment [1] is greater than 100 µM; in [2] it was > 100 µM (inactive); in experiment [3], > 100 µM (inactive); in [19], > 100 µM (inactive); in [5], > 100 µM (inactive); in [6], > 100 µM (inactive). The GI50 in experiment [7] was > 100 µM (inactive); in experiment [8], 32.3 µM (inactive); in [9], > 100 µM (inactive); in experiment [11], > 66.4 µM (inactive); in experiment [20], > 61 µM (inactive); in [12] it was > 100 µM (inactive). Moreover, the GI50 in experiment [13] is > 100 µM (inactive); in experiment [14], 50.8 µM (inactive); in [15], > 100 µM (inactive); in experiment [16], 54.8 µM (inactive); in experiment [17] it was > 100 µM (inactive); in experiment [18], > 100 µM (inactive).

Take `Cc1c(NC(=O)CCCl)c(=O)oc2c(C)c3occc(=O)c3cc12`: the GI50 in experiment [1] is 62.4 µM; in experiment [2], > 100 µM (inactive); in [3], > 100 µM (inactive); in [4], 67.5 µM (inactive); in [19] it was 28.9 µM (inactive); in experiment [5], 75.5 µM (inactive). Also, the GI50 in experiment [7] is > 100 µM (inactive); in experiment [8], 30.9 µM (inactive); in [9] it was 51.2 µM (inactive); in experiment [11], 50.8 µM (inactive); in experiment [20], 80.4 µM (inactive); in [12] it was > 100 µM (inactive). In addition, the GI50 in [13] was 97.5 µM (inactive); in experiment [14], 76.9 µM (inactive); in experiment [15] it was 49.2 µM (inactive); in experiment [16], 45.5 µM (inactive); in experiment [17] it was 92.7 µM (inactive).

As to `NNC(=O)C1CCC(=O)N1S(=O)(=O)c1ccccc1` (stereo unspecified), the GI50 in experiment [1] was greater than 100 µM; in experiment [2], > 100 µM (inactive); in experiment [3], > 100 µM (inactive); in [19], > 100 µM (inactive); in [5] it was > 100 µM (inactive); in [6], > 100 µM (inactive). Moreover, the GI50 in experiment [7], in experiment [8], in experiment [9], in [11], in experiment [20] and in [12] was > 100 µM (inactive) each time. In addition, the GI50 in [13], in experiment [14], in [15], in experiment [16], in experiment [17] and in [18] was > 100 µM (inactive) each time.

Take `O=c1c(C(c2ccc(-c3ccccc3)cc2)c2c(O)oc3ccccc3c2=O)c(O)oc2ccccc12`: the GI50 was 19.1 µM in [1]; 46.6 µM (inactive) in experiment [2]; 21.8 µM (inactive) in [3]; 19.1 µM (inactive) in experiment [19]; 30.5 µM (inactive) in experiment [5]; 23.2 µM (inactive) in experiment [6]. Besides, the GI50 was 31.3 µM (inactive) in [8]; 18.9 µM (inactive) in experiment [9]; 24.2 µM (inactive) in experiment [10]; 24.1 µM (inactive) in experiment [12]; 34.8 µM (inactive) in experiment [13]; 33.5 µM (inactive) in experiment [14]. For the same molecule, the results for the GI50 in experiment [15], in [16] and in experiment [17] were 51.9 µM (inactive), 26.7 µM (inactive) and 23.2 µM (inactive), respectively.
